Results reported in ChEMBL document CHEMBL5625270, “Targeting ATP-binding site of WRN Helicase: Identification of novel inhibitors through pocket analysis and Molecular Dynamics-Enhanced virtual screening” (Bioorg Med Chem Lett, 2024).
Calls of active or inactive are those of the source. The rule behind the calls is not given here.

Columns and labels:
[1] = target: T1, Bifunctional 3'-5' exonuclease/ATP-dependent helicase WRN (Homo sapiens, UniProt Q14191); test: Inhibition of WRN (unknown origin) ATPase activity
T1 sequence (Q14191 whole entry): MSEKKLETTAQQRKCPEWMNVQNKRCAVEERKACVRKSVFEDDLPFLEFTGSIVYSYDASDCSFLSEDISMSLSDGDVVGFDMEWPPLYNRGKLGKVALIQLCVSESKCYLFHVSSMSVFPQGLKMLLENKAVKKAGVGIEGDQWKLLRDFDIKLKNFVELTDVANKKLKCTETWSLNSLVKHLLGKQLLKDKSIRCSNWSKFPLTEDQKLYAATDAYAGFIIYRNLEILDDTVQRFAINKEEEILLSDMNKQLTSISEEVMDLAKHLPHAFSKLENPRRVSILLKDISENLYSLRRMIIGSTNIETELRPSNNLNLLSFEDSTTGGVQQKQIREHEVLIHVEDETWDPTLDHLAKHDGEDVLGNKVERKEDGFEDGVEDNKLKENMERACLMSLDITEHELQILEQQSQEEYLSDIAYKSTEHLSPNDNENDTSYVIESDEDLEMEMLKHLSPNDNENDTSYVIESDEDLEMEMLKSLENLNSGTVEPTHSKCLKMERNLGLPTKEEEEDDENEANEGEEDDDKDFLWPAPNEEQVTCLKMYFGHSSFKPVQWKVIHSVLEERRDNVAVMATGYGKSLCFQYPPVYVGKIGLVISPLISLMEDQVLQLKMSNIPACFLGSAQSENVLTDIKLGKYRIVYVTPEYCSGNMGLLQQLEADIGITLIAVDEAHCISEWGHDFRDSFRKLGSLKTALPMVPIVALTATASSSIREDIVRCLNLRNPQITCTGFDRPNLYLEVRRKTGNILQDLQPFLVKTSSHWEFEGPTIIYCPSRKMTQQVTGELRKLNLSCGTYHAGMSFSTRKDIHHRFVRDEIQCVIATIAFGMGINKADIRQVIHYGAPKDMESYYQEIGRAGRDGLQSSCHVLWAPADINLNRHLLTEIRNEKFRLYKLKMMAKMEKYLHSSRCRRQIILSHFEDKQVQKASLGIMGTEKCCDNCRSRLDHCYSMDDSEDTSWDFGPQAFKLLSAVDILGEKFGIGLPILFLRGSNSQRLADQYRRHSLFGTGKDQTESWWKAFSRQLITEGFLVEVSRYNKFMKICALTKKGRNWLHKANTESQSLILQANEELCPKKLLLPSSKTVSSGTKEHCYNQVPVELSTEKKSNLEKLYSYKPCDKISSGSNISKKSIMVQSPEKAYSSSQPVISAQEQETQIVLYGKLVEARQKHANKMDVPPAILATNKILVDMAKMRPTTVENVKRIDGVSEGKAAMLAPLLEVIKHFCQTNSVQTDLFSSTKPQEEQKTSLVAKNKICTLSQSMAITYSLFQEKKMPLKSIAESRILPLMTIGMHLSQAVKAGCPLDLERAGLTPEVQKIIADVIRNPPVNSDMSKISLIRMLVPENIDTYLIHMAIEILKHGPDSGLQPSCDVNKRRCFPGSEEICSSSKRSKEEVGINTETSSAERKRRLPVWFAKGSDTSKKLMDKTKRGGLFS

[2] = target: RecQ-like DNA helicase BLM (Homo sapiens, UniProt P54132); test: Inhibition of BLM (unknown origin) ATPase activity
Sequence of RecQ-like DNA helicase BLM (P54132 whole entry): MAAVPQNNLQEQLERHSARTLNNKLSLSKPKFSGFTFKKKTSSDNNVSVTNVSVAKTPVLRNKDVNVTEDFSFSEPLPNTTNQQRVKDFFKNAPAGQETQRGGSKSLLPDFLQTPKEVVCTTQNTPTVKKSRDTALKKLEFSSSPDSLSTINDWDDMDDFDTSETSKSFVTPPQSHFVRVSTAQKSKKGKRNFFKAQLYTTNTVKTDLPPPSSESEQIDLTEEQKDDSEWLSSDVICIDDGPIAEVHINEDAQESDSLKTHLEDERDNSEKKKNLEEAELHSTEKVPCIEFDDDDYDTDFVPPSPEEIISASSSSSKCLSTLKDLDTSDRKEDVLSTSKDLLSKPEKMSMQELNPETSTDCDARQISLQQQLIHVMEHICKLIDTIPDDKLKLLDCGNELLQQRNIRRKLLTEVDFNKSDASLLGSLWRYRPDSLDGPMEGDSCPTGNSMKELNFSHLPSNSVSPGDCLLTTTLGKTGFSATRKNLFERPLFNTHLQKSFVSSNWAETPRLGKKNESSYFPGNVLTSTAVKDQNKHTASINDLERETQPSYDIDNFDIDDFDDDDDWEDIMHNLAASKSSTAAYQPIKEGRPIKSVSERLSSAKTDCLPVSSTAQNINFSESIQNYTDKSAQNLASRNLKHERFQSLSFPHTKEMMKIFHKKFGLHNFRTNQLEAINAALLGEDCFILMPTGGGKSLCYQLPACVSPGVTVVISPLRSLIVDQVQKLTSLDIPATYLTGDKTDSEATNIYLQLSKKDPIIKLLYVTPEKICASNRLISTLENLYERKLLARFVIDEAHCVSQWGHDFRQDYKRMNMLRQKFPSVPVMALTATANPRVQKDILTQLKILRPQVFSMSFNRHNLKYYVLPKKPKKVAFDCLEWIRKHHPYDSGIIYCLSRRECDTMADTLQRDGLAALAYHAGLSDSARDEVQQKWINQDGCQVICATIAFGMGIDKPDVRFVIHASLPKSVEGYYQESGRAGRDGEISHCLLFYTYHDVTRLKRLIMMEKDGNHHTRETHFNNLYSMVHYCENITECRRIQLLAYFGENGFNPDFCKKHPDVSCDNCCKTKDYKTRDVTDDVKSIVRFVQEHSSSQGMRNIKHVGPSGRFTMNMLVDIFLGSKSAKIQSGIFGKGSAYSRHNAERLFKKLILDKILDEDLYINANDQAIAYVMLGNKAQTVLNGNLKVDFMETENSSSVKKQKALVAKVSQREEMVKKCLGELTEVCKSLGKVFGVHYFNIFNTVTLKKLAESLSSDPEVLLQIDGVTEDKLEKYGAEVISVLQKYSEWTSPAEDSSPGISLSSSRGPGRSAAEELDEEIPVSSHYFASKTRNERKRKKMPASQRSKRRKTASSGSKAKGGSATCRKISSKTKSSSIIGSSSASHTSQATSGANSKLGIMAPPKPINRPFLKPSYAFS

[3] = target: T2, Eukaryotic initiation factor 4A-I (Homo sapiens, UniProt P60842); test: Inhibition of eIF4A (unknown origin) ATPase activity
T2 sequence (P60842 whole entry): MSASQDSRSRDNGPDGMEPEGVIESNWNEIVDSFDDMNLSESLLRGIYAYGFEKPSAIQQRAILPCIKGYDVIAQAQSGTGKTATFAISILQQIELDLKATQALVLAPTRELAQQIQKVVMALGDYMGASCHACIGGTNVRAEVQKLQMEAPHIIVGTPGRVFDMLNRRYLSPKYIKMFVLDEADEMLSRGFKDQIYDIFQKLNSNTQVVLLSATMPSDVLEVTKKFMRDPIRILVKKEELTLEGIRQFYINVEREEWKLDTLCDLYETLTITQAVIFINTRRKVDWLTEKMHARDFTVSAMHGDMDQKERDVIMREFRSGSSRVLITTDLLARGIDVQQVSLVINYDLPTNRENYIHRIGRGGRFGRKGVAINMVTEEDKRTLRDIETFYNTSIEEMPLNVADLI

[4] = organism: Homo sapiens; test: Inhibition of HSP90 (unknown origin) ATPase activity within 200 uM
[5] = target: T2, Eukaryotic initiation factor 4A-I; test: Inhibition of eIF4A (unknown origin) ATPase activity at <200 uM
[6] = target: T1, Bifunctional 3'-5' exonuclease/ATP-dependent helicase WRN; test: Inhibition of WRN (unknown origin)
[7] = target: T2, Eukaryotic initiation factor 4A-I; test: Inhibition of eIF4A (unknown origin) ATPase activity within 200 uM
[8] = target: T1, Bifunctional 3'-5' exonuclease/ATP-dependent helicase WRN; test: Inhibition of recombinant human WRN unwinding activity by immunosorbent-based helicase unwinding assay
[9] = Inhibition of HSP90 (unknown origin) ATPase activity; set-up: species or system Homo sapiens
[10] = organism: Homo sapiens; test: Inhibition of HSP90 (unknown origin) ATPase activity at <200 uM
[11] = system: Microsatellite instability cancer cell; test: Cytotoxicity against Microsatellite instability cancer cell (unknown origin); type: functional, cell-based

| IC50 [1] [µM] | IC50 [2] [µM] | IC50 [3] [µM] | inhibition [4] | inhibition [5] | IC50 [6] [µM] | inhibition [7] | IC50 [8] [µM] | IC50 [9] [µM] | inhibition [10] | SMILES | Activity [11] |
| --- | --- | --- | --- | --- | --- | --- | --- | --- | --- | --- | --- |
| 10.4 | 1.6 | > 200 | inactive | Active |  |  |  |  |  | CCC(=O)OCN1C(=O)C=CC1=O |  |
|  |  |  |  |  | 13 |  |  |  |  | COc1ccc2nc(O)c(-c3noc(-c4ccc(F)cc4)n3)cc2c1 |  |
| 88.7 | 11.3 |  | inactive |  | 0.23 | inactive |  |  |  | CC(C)(CN1C(=O)C(Cl)=C(Cl)C1=O)CN1C(=O)C(Cl)=C(Cl)C1=O |  |
|  |  |  |  |  | 2.3 |  |  |  |  | COc1ccc2nc(O)c(-c3noc(-c4ccccc4)n3)cc2c1 |  |
| 5 | 3.3 | > 200 |  | Active |  |  | 0.2 | > 200 | Active | O=C1/C(=C2\Nc3ccc(S(=O)(=O)O)cc3C2=O)Nc2ccc(S(=O)(=O)O)cc21 [INDIGOTINDISULFONATE] |  |
| 15.8 | 26.3 |  |  |  |  | inactive | 9.8 | 47.6 |  | Cc1ccc(NC(=O)CN2C(=O)N/C(=C/c3ccccc3OCc3cccc(C(=O)O)c3)C2=O)cc1 | inactive |
